According to patent US5543276A, “Color photographic element containing new epoxy scavengers for residual magenta coupler” (Eastman Kodak Company, priority 1994, dated 1996):

Experiments:
[1] = epoxy compound coated in separate layers adjacent to imaging layer; copending application Ser. No. 08/000,431; cited from earlier work
[2] = Residual magenta coupler M-20 in unexposed strips, raw stock and RA-4 processed; details: coated M-20 32.8 mg/ft^2; for M-20 remaining, Processed after 2wk / M-20 remaining, Processed after 4wk: unexposed strips, standard RA-4 developer; for M-20 remaining, Processed after 2wk / M-20 remaining, Raw Stock after 2wk RT: 2 weeks room temperature; for M-20 remaining, Processed after 4wk / M-20 remaining, Raw Stock after 4wk: 4 weeks room temperature; for M-20 remaining, Raw Stock after 2wk RT / M-20 remaining, Raw Stock after 4wk: unprocessed strips
Description: A dispersion of the magenta coupler M-20 and scavenger coupler S-1 were prepared in the following manner:
The oil phase was prepared by combining 1.875 grams of S-1 with 0.852 grams of myrisitc acid and 30 grams of ethyl acetate. The solution was stirred on a hot plate for about 5 minutes.
The aqueous phase was prepared by combining 3.0 grams of a 10% solution of Alkanol XC with 17.6 grams of a 11.36% solution of Type IV gelatin in water. 26.7 grams of distilled water was then added and the solution was stirred on a hot plate for about five minutes.
The aqueous phase was combined with the oil phase and the mixture was stirred. The mixture was then passed three times through a colloid mill to obtain the dispersion. The ethyl acetate was removed by evaporation under reduced pressure. [drawing 42] The dispersions were then coated in the format shown below (the numbers indicate the amount of each component in mg/ft^2).
The coating format also contains a UV protection layer and an overcoat (not shown). Unexposed strips were process in standard RA-4 developer and then stored at room temperature. The strips were analyzed for residual coupler as a function of time. A set of unprocessed strips were stored at room temperature for the same length of time to check for reaction between coupler and S-1 in raw stock. A second set of unexposed strips were processed in standard RA-4 developer and then subjected to two weeks of 50 klux high intensity sunshine radiation after storage at room temperature for two weeks. The change in Status A blue density was measured. […]

[3] = Change in Status A blue density (photochemical yellowing) of processed unexposed strips under high intensity sunshine radiation; details: RA-4 processed, 2 weeks room temperature, then two weeks 50 klux high intensity sunshine
Description: The coating format also contains a UV protection layer and an overcoat (not shown). Unexposed strips were process in standard RA-4 developer and then stored at room temperature. The strips were analyzed for residual coupler as a function of time. A set of unprocessed strips were stored at room temperature for the same length of time to check for reaction between coupler and S-1 in raw stock. A second set of unexposed strips were processed in standard RA-4 developer and then subjected to two weeks of 50 klux high intensity sunshine radiation after storage at room temperature for two weeks. The change in Status A blue density was measured.
This coating also contained a UV protection layer and overcoat (not shown). Strips based on the coating were subjected to the same set of tests as in Example 4.

Row | M-20 remaining, Processed after 2wk [2] | M-20 remaining, Processed after 4wk [2] | M-20 remaining, Raw Stock after 2wk RT [2] | M-20 remaining, Raw Stock after 4wk [2] | SMILES | loss of coupler prior to processing [1] | Delta Blue Density [3]
1 | 29.9 mg/ft.2 | 29.3 mg/ft.2 | 30.2 mg/ft.2 | 28.8 mg/ft.2 | O=C(OCCCCCCCCCC1CO1)c1ccccc1C(=O)OCCCCCCCCCC1CO1 (centres unmarked) [S-1] | negligible loss of coupler prior to processing | 0.13
2 | 14.9 mg/ft.2 | 13.9 mg/ft.2 | 28.6 mg/ft.2 | 28.4 mg/ft.2 | O=C(CCCCCCCCC1CO1)Oc1ccc(NS(=O)(=O)c2ccc(F)cc2F)cc1 (centres unmarked) [SI-20] |  | 0.05
